The compounds below were run against T1, histamine H4 receptor (Homo sapiens, UniProt Q9H3N8) (assay: H4 binding, method 1 ([3H]-histamine filtration binding on CHO cell membranes)). Conditions: 1.5 h.
T1 construct: expressed in transfected cells; host or cells: CHO cells
In short: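 Membranes from CHO cells expressing human H4 receptor (20-35 μg/well) incubated 90 min at room temperature with 3 nM [3H]-histamine in 50 mM Tris-HCl pH 7.4, ± competitor. Bound label separated by filtration on PEI-soaked GF/B filters and counted by scintillation; non-specific binding with 10 μM JNJ7777120.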

T1 sequence (Q9H3N8 whole entry): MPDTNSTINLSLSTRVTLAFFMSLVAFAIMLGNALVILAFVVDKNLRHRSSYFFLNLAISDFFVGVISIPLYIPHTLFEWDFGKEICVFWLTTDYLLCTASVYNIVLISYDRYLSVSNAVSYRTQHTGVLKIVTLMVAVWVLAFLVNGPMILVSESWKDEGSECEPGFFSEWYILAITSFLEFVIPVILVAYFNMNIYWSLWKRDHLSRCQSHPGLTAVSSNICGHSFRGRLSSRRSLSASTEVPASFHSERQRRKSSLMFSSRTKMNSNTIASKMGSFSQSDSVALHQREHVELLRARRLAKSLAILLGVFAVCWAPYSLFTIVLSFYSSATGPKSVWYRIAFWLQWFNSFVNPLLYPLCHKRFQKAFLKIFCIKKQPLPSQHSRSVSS

For `Nc1nc(NCc2cc(F)ccc2F)cc(N2CC[C@@H](N)C2)n1` [Example 311, 6-[(3R)-3-Aminopyrrolidin-1-yl]-N^4-(2,5-difluorobenzyl)pyrimidine-2,4-diamine], which inhibition at 20 µM is on record?
The inhibition at 20 µM was 80%.

`CC(C)(C)CCNc1cc(N2CC(N3CCOCC3)C2)ncn1` [Example 312, N-(3,3-Dimethylbutyl)-6-(3-morpholin-4-ylazetidin-1-yl)pyrimidin-4-amine] was tested. Which inhibition at 20 µM did it give?
The inhibition at 20 µM was 21%.

How did the inhibition at 20 µM turn out when `CCCNc1cc(N2CCN[C@H](C)C2)ncn1` [Example 313, 6-[(3R)-3-Methylpiperazin-1-yl]-N-propylpyrimidin-4-amine] was run?
The inhibition at 20 µM was 70%.

`CNc1cc(N2CCCC(NC)C2)nc(N)n1` (stereo not drawn) [Example 321, N^4-Methyl-6-[3-(methylamino)piperidin-1-yl]pyrimidine-2,4-diamine] was tested. Which inhibition at 20 µM did it give?
Its inhibition at 20 µM is 15%.

Which inhibition at 20 µM does the source give for `Nc1nc(NCC2CC2)cc(N2CC(N3CCOCC3)C2)n1` [Example 322, N^4-(Cyclopropylmethyl)-6-(3-morpholin-4-ylazetidin-1-yl)pyrimidine-2,4-diamine] here?
Its inhibition at 20 µM is 57%.

With `CCCNc1cc(N2CCCC(NC)C2)nc(N)n1` (stereo not drawn) [Example 323, 6-[3-(Methylamino)piperidin-1-yl]-N^4-propylpyrimidine-2,4-diamine] as the compound, how does the inhibition at 20 µM read?
The inhibition at 20 µM was 85%.

Which inhibition at 20 µM does the source give for `CCNc1cc(N2CCCC(NC)C2)nc(N)n1` (stereo not drawn) [Example 324, N^4-Ethyl-6-[3-(methylamino)piperidin-1-yl]pyrimidine-2,4-diamine] here?
Its inhibition at 20 µM is 55%.

How did the inhibition at 20 µM turn out when `CN[C@@H]1CCN(c2cc(NCc3ccc(F)cc3F)nc(N)n2)C1` [Example 325, N^4-(2,4-Difluorobenzyl)-6-[(3R)-3-(methylamino)pyrrolidin-1-yl]pyrimidine-2,4-diamine] was run?
Its inhibition at 20 µM is 43%.

With `CN[C@@H]1CCN(c2ncnc(NCC(C)(C)C)c2C)C1` [Example 326, N-(2,2-Dimethylpropyl)-5-methyl-6-[(3R)-3-(methylamino)pyrrolidin-1-yl]pyrimidin-4-amine] as the compound, how does the inhibition at 20 µM read?
Its inhibition at 20 µM is 48%.

Same assay, conditions: H4 binding, method 1; Ki calculated from IC50 (Cheng-Prussoff)

How did the Ki turn out when `c1ccc(CCNc2cc(N[C@H]3CCNC3)ncn2)cc1` [Example 315, N-(2-Phenylethyl)-N′-[(3S)-pyrrolidin-3-yl]pyrimidine-4,6-diamine] was run?
Its Ki is 5190 nM.

How did the Ki turn out when `c1nc(NC[C@H]2CCCO2)cc(N[C@H]2CCNC2)n1` [Example 319, N-[(3S)-Pyrrolidin-3-yl]-N′-[(2R)-tetrahydrofuran-2-ylmethyl]pyrimidine-4,6-diamine] was run?
The Ki was 6010 nM.

Same assay, conditions: at 6.3 μM

For `CNc1cc(N2CCC(C)(N)C2)nc(N)n1` (stereo not drawn) [Example 320, 6-(3-Amino-3-methylpyrrolidin-1-yl)-N^4-methylpyrimidine-2,4-diamine], which “Method 1, % at 6.3 μM” value is on record?
The value was 46% at 6.3 μM.

Same assay, conditions: top dose 10 μM

For `C[C@@H]1CN(c2cc(NCC3CC3)nc(N)n2)CCN1` [Example 310, N^4-(Cyclopropylmethyl)-6-[(3R)-3-methylpiperazin-1-yl]pyrim idine-2,4-diamine], which “Method 1, activity at top dose (10 μM)” value is on record?
The value was “No activity at top”.

Which “Method 1, activity at top dose (10 μM)” value does the source give for `c1nc(NC2CC2)cc(N2CCCNCC2)n1` [Example 314, N-Cyclopropyl-6-(1,4-diazepan-1-yl)pyrimidin-4-amine] here?
Its value is “No activity at top”.

For `CNC1CN(c2cc(NCc3cc(F)cc(F)c3)nc(N)n2)C1` [Example 316, N^4-(3,5-Difluorobenzyl)-6-[3-(methylamino)azetidin-1-yl]pyrimidine-2,4-diamine], which “Method 1, activity at top dose (10 μM)” value is on record?
Its value is “No activity at top”.

Which “Method 1, activity at top dose (10 μM)” value does the source give for `CNC1CN(c2cc(NCc3c(F)cccc3F)nc(N)n2)C1` [Example 317, N^4-(2,6-Difluorobenzyl)-6-[3-(methylamino)azetidin-1-yl]pyrimidine-2,4-diamine] here?
The value was “No activity at top”.

`CC(C)(C)CNc1cc(N2C[C@H]3CCCN[C@H]3C2)nc(N)n1` [Example 318, N^4-(2,2-Dimethylpropyl)-6-[(4aR,7aR)-octahydro-6H-pyrrolo[3,4-b]pyridin-6-yl]pyrimidine-2,4diamine] was tested. Which “Method 1, activity at top dose (10 μM)” value did it give?
Its value is “No activity at top”.

Each compound was assayed against T1, histamine H4 receptor (assay: H4 binding, method 2 ([3H]-histamine binding with Ysi WGA beads on CHO cell membranes)). Conditions: H4 binding, method 2; Ki calculated from IC50 (Cheng-Prussoff); read-out: Method 2 (Ki (nM)).
Experimental: Cell pellets from CHO cells expressing the histamine H4 receptor were homogenised in ice-cold 50 mM Tris-HCl/0.5 mM CaCl2 buffer containing a protease inhibitor cocktail (Roche®, United Kingdom) using a ground glass homogeniser. Homogenates were centrifuged at 48000 g for 30 min at 4° C. The membrane pellet was resuspended in fresh buffer and the centrifugation step was repeated as described above. The membrane pellet was resuspended in 50 mM Tris-HCl in the same volume as the original cell pellet. Aliquots of membrane preparations were stored at −80° C. and were used for [^3H]-Histamine binding experiments.
Cell membranes (15 μg/well) were pre-incubated for 120 min shaking at 4° C. with Ysi WGA beads (250 μg/well) in 50 mM Tris-HCl (pH 7.4) followed by centrifugation at 1500 rpm for 5 minutes and resuspension in 50 mM Tris-HCl (pH 7.4). The membrane/bead mixture (15 μg membrane/250 μg beads well) was incubated for 90 minutes shaking at room temperature with 6.5 nM [2,5-^3H] Histamine dihydrochloride (30-60 Ci/mmol) in 50 mM Tris-HCl (pH 7.4), with or without competing H4 ligands. Non-specific binding was defined with 10 μM JNJ7777120. Bound radiolabel was determined using scintillation counting techniques after 90 minutes.

For `CC(C)(C)CCNc1cc(N2C[C@H]3CCCN[C@H]3C2)nc(N)n1` (racemic) [Example 23, N^4-(3,3-Dimethylbutyl)-6-[(4aR*,7aR*)-octahydro-6H-pyrrolo[3,4-b]pyridin-6-yl]pyrimidine-2,4-diamine], which Ki is on record?
The Ki was 824 nM.

`CNc1cc(N2C[C@H]3CCCN[C@H]3C2)nc(N)n1` (racemic) [Example 25, N^4-Methyl-6-[(4aR*,7aR*)-octahydro-6H-pyrrolo[3,4-b]pyridin-6-yl]pyrimidine-2,4-diamine] was tested. Which Ki did it give?
Its Ki is 154 nM.

For `CC(C)(C)CCNc1cc(N2C[C@H]3CCCN[C@H]3C2)ncn1` (racemic) [Example 328, N-(3,3-Dimethylbutyl)-6-[(4aR*,7aR*)-octahydro-6H-pyrrolo[3,4-b]pyridin-6-yl]pyrimidin-4-amine], which Ki is on record?
The Ki was 554 nM.

Which Ki does the source give for `c1nc(NCC2CC2)cc(N2C[C@H]3CCCN[C@H]3C2)n1` (relative stereo) [Example 123, N-(Cyclopropylmethyl)-6-[(4aR*,7aR*)-octahydro-6H-pyrrolo[3,4-b]pyridin-6-yl]pyrimidin-4-amine] here?
The Ki was 103 nM.

Same assay, conditions: Method 2 (Ki (nM)), H4 binding, method 2; Ki calculated from IC50 (Cheng-Prussoff)

How did the Ki turn out when `CC(C)Nc1cc(N2C[C@H]3CCCN[C@H]3C2)nc(N)n1` (racemic) [Example 24, N^4Isopropyl-6-[(4aR*,7aR*)-octahydro6H-pyrrolor[3,4-b]pyridin-6-yl]pyrimidine-2,4-diamine] was run?
Its Ki is 30.8 nM.

`CCNc1cc(N2C[C@H]3CCCN[C@H]3C2)nc(N)n1` (racemic) [Example 26, N^4-Ethyl-6-[(4aR*,7aR*)-octahydro-6H-pyrrolo[3,4-b]pyridin-6-yl]pyrimidine-2,4-diamine] was tested. Which Ki did it give?
Its Ki is 30 nM.

With `CC(C)CNc1cc(N2C[C@H]3CCCN[C@H]3C2)nc(N)n1` (racemic) [Example 27, N^4-Isobutyl-6-[(4aR*,7aR*)-octahydro-6H-pyrrolo[3,4-b]pyridin-6-yl]pyrimidine-2,4-diamine] as the compound, how does the Ki read?
Its Ki is 22.4 nM.

For `Nc1nc(NCC2CC2)cc(N2C[C@H]3CCCN[C@H]3C2)n1` (racemic) [Example 28, N^4-(Cyclopropylmethyl)-6-[(4aR*,7aR*)-octahydro-6H-pyrrolo[3,4-b]pyridin-6-yl] pyrimidine-2,4-diamine], which Ki is on record?
The Ki was 21.3 nM.

Which Ki does the source give for `CC(C)CCNc1cc(N2C[C@H]3CCCN[C@H]3C2)nc(N)n1` (racemic) [Example 29, N^4-(3-Methylbutyl)-6-[(4aR*, 7aR*)-octahydro-6H-pyrrolo [3,4-b]pyridin-6-yl] pyrimidine-2,4-diamine] here?
The Ki was 82.9 nM.

For `Nc1nc(NC2CC2)cc(N2C[C@H]3CCCN[C@H]3C2)n1` (racemic) [Example 31, N^4-Cyclopropyl-6-[(4aR*,7aR*)-octahydro-6H-pyrrolo[3,4-b]pyridin-6-yl] pyrimidine-2,4-diamine], which Ki is on record?
The Ki was 21.1 nM.

How did the Ki turn out when `Nc1nc(NC2CCC2)cc(N2C[C@H]3CCCN[C@H]3C2)n1` (racemic) [Example 32, N^4-Cyclobutyl-6-[(4aR*,7aR*)-octahydro-6H-pyrrolo[3,4-b]pyridin-6-yl] pyrimidine-2,4-diamine] was run?
The Ki was 20.9 nM.

How did the Ki turn out when `Nc1nc(NCC2CCCC2)cc(N2C[C@H]3CCCN[C@H]3C2)n1` (racemic) [Example 33, N^4-(Cyclopentylmethyl)-6-[(4aR*,7aR*)-octahydro-6H-pyrrolo[3,4-b]pyridin-6-yl] pyrimidine-2,4-diamine] was run?
The Ki was 84.1 nM.

`CC(C)(C)CNc1cc(N2C[C@H]3CCCN[C@H]3C2)ncn1` (racemic) [Example 127, N-(2,2-Dimethylpropyl)-6-[(4aR*,7aR*)-octahydro-6H-pyrrolo[3,4-bjpyridin-6-yl]pyrimidin-4-amine] was tested. Which Ki did it give?
The Ki was 65.8 nM.
